# Patent publication US4323581A, “Method of treating carcinogenesis” (priority 1978, dated 1982)
# What was measured:
# [1] = tested on: chemical carcinogenesis; details: in vivo; cited from earlier work
# [2] = tested on: breast cancer; details: in vivo; cited from earlier work
# [3] = cited from earlier work; for toxicity at high dosage levels: higher mammals
# [4] = tested on: MNU-induced mammary cancer; experiment: Inhibition of mammary carcinogenesis induced by N-methyl-N-nitrosourea (MNU), rat breast cancer; assay type: in vivo, Female Sprague-Dawley rats
# [5] = Target specificity in concentrating at the breast; details: in vivo
# [6] = compared with sunscreening amounts of retinoic acid; U.S. Pat. No. 4,108,880; cited from earlier work
# [7] = U.S. Pat. No. 4,108,880; cited from earlier work
# [8] = tested on: epithelial cancer; experiment: Effectiveness in preventing epithelial cancer in mammals; assay type: in vivo; details: at reasonable dose levels
# [9] = tested on: tracheal epithelium; experiment: Reversal of keratinized squamous metaplastic lesions of vitamin A deficiency in tracheal organ culture; assay type: cell-based; details: for % of Cultures with Keratin and Keratohyaline Granules / % of Cultures with Respective Amounts of Squamous Metaplasia: None / % of Cultures with Respective Amounts of Squamous Metaplasia: Marked / % of Cultures with Respective Amounts of Squamous Metaplasia: Mild / % of Cultures with Respective Amounts of Squamous Metaplasia: Minimal / % of Cultures with Respective Amounts of Squamous Metaplasia: Severe: collected day 10; for % of Cultures with Respective Amounts of Squamous Metaplasia: Marked: marked = 10-40% squamous; for % of Cultures with Respective Amounts of Squamous Metaplasia: Mild: mild = 2-10% squamous; for % of Cultures with Respective Amounts of Squamous Metaplasia: Minimal: minimal = less than 2% squamous; for % of Cultures with Respective Amounts of Squamous Metaplasia: Severe: severe = more than 40% squamous
# Source text: N-(4-hydroxyphenyl)-all-trans-retinamide was compared with retinoic acid in an in vitro screening model for identifying retinoids having activity in preventing carcinogenesis in epithelial tissue. The experimental method, which is described in Experimental Lung Cancer:Intern'l Symp, 575-82, 1974, involves reversal of keratinization in tracheal organ culture.
# In brief summary, in the absence of retinoic acid or a synthetic retinoid having similar activity, the test organ culture of tracheal epithelium undergoes abnormal differentiation. Addition of small concentrations of retinoic acid (as low as 10^-9 M) will cause reversion to normal tracheal epithelium. Test compounds are compared in activity to retinoic acid or another active standard both as regards squamous metaplasia and keratin production, both of which are measures of abnormal development of the epithelial culture.
# In carrying out the tests reported in Table I, all tracheas were cultured for the first 3 days in medium without retinoid. At this time, some tracheas were collected, while the rest were cultured for a further week in medium containing either no retinoid, or retinoid added at the concentrations shown. These tracheas were collected on the 10th day of culture. Cultures were graded as to the percentage of their total epithelium showing squamous metaplasia on eight cross sections from the middle of each trachea. If more than 40% of the total epithelial length was squamous, it was graded as having severe squamous metaplasia; between 10-40% was graded as marked; between 2-10% was graded as mild; and less than 2% was graded as minimal.
# [10] = Systemic toxicity; details: in vivo
# [11] = Accumulation in the liver; assay type: in vivo; details: unlike the natural retinyl esters
# [12] = tested on: MNU-induced mammary cancer; experiment: Inhibition of mammary carcinogenesis induced by N-methyl-N-nitrosourea (MNU), rat breast cancer; assay type: in vivo, Female Sprague-Dawley rats; details: Table III
# Source text: On the basis of the encouraging results summarized in the foregoing example, N-(4-hydroxyphenyl)-all-trans-retinamide was compared to retinyl acetate in the experimental assay for efficacy against rat breast cancer described in Nature Vol. 267, pp 620-621 (June 16, 1977), which measures the ability to inhibit mammary carcinogenesis induced by N-methyl-N-nitrosourea (MNU). The results of further extension of the tests, comparing the 4-hydroxyphenyl retinamide only to placebo, after 18 weeks with high dose MNU and 21 weeks with low dose MNU, are set forth in Table III. The results using these two different levels of MNU and two dietary levels of retinoid are shown graphically in FIGS. 1 and 2 after 18 weeks of testing.
# Animals: Female Sprague-Dawley rats obtained from ARS Sprague-Dawley.
# Crystalline MNU. Rats received 2 I.V. injections at 50 and 57
# High dose is 50 mg/kg; low dose 15 mg/kg.
# Retinoids were dissolved in solvent and blended into the diets.
# placed on diets 3 days after last MNU injection.
# 50 gm trioctanoin:ethanol (3:1), 0.05 ml Tenox 20, 0.05 ml
# 50 gm retinoid solvent/kg diet.
# High dose is 50 mg/kg; low dose 15 mg/kg. Rats on high dose of
# sacrificed after 18 weeks.
# Placebo: 50 gm retinoid solvent/kg diet.
# [13] = LD50 in Swiss mice; details: mouse, in vivo
# Method: The drug is administered at regular intervals, conveniently at meal times or once daily.
# [14] = Toxicity compared to retinyl acetate; details: in vivo
# [15] = tested on: breast cancer; experiment: Prevention of breast cancer in rats, oral dosing; assay type: in vivo; details: oral doses of 32 and 64 mg/kg/day
# [16] = tested on: tracheal epithelium; details: small concentrations, as low as; cited from earlier work
# [17] = Table II, 73 days, MNU high dose (50 mg/kg), 328 mg/kg diet
# [18] = Table II, 73 days, MNU high dose (50 mg/kg), 656 mg/kg diet
# [19] = Table II, 73 days, MNU low dose (15 mg/kg), 328 mg/kg diet
# [20] = Table II, 73 days, MNU low dose (15 mg/kg), 656 mg/kg diet
# [21] = Table II, 73 days, saline, 328 mg/kg diet
# [22] = Table II, 73 days, saline, 656 mg/kg diet
# [23] = 18 weeks, MNU high dose (50 mg/kg), 391 mg/kg diet
# [24] = 21 weeks, MNU low dose (15 mg/kg), 391 mg/kg diet
# [25] = Table II, 73 days, MNU high dose (50 mg/kg), 391 mg/kg diet
# [26] = Table II, 73 days, MNU high dose (50 mg/kg), 782 mg/kg diet
# [27] = Table II, 73 days, MNU low dose (15 mg/kg), 391 mg/kg diet
# [28] = Table II, 73 days, MNU low dose (15 mg/kg), 782 mg/kg diet
# [29] = Table II, 73 days, saline, 391 mg/kg diet
# [30] = Table II, 73 days, saline, 782 mg/kg diet
# [31] = Table III, 18 weeks, MNU high dose (50 mg/kg), 782 mg/kg diet
# [32] = Table III, 21 weeks, MNU low dose (15 mg/kg), 782 mg/kg diet
# [33] = Table III, saline, 391 mg/kg diet
# [34] = Table III, saline, 782 mg/kg diet
smiles,measurement,setting,value
CC1=C(/C=C/C(C)=C/C=C/C(C)=C\C(=O)O)C(C)(C)CCC1 [13-cis-retinoic acid],potency in preventing chemical carcinogenesis relative to retinoic acid or the natural retinyl esters,[1],more potent in preventing chemical carcinogenesis
same,effectiveness against breast cancer in the rat model,[2],has not been found to be particularly effective against breast cancer in the rat model
same,toxicity relative to retinoic acid or the natural retinyl esters,[3]; in vivo,considerably less toxic than retinoic acid or the natural retinyl esters
CCCCCCCCCCCCCCCC(=O)OC/C=C(C)/C=C/C=C(C)/C=C/C1=C(C)CCCC1(C)C [retinyl palmitate],toxicity at high dosage levels,[3],too toxic at high dosage levels to be of practical value for cancer prevention in higher mammals
"CC(=O)OC/C=C(C)/C=C/C=C(C)/C=C/C1=C(C)CCCC1(C)C [Retinyl Acetate, retinyl acetate, reference compound]",toxicity at high dosage levels,[3],too toxic at high dosage levels to be of practical value for cancer prevention in higher mammals
same,Mammary Tumor Incidence,[4]; [17],5/19
same,Mammary Tumor Incidence (%),[4]; [17],26%
same,Mammary Tumor Incidence,[4]; [18],4/17
same,Mammary Tumor Incidence (%),[4]; [18],24%
same,Mammary Tumor Incidence,[4]; [19],0/39
same,Mammary Tumor Incidence (%),[4]; [19],0%
same,Mammary Tumor Incidence,[4]; [20],0/40
same,Mammary Tumor Incidence (%),[4]; [20],0%
same,Mammary Tumor Incidence,[4]; [21],0/10
same,Mammary Tumor Incidence (%),[4]; [21],0%
same,Mammary Tumor Incidence,[4]; [22],0/10
same,Mammary Tumor Incidence (%),[4]; [22],0%
"CC1=C(/C=C/C(C)=C/C=C/C(C)=C/C(=O)Nc2ccc(O)cc2)C(C)(C)CCC1 [4-Hydroxyphenyl Retinamide, N-(4-hydroxyphenyl)-all-trans-retinamide]",target specificity in concentrating at the breast,[5],adequate target specificity in concentrating at the breast
same,irritating effect on skin,[6],does not have the irritating effect on skin that would be expected from the use of sunscreening amounts of retinoic acid
same,ultraviolet absorption,[7],good ultraviolet absorber
same,effectiveness in preventing epithelial cancer in mammals,[8],good effectiveness in preventing epithelial cancer in mammals
same,efficacy relative to retinoic acid,[9]; 10^-8 M,at least as efficacious as retinoic acid
same,% of Cultures with Keratin and Keratohyaline Granules,[9]; 10^-8 M,0%
same,% of Cultures with Respective Amounts of Squamous Metaplasia: None,[9]; 10^-8 M,20%
same,% of Cultures with Respective Amounts of Squamous Metaplasia: Marked,[9]; 10^-8 M,0%
same,% of Cultures with Respective Amounts of Squamous Metaplasia: Mild,[9]; 10^-8 M,0%
same,% of Cultures with Respective Amounts of Squamous Metaplasia: Minimal,[9]; 10^-8 M,80%
same,% of Cultures with Respective Amounts of Squamous Metaplasia: Severe,[9]; 10^-8 M,0%
same,efficacy relative to retinoic acid,[9]; 10^-9 M,nearly as efficaceous
same,% of Cultures with Keratin and Keratohyaline Granules,[9]; 10^-9 M,40%
same,% of Cultures with Respective Amounts of Squamous Metaplasia: None,[9]; 10^-9 M,20%
same,% of Cultures with Respective Amounts of Squamous Metaplasia: Marked,[9]; 10^-9 M,0%
same,% of Cultures with Respective Amounts of Squamous Metaplasia: Mild,[9]; 10^-9 M,30%
same,% of Cultures with Respective Amounts of Squamous Metaplasia: Minimal,[9]; 10^-9 M,20%
same,% of Cultures with Respective Amounts of Squamous Metaplasia: Severe,[9]; 10^-9 M,30%
same,efficacy,[9]; 10^-10 M,virtually inefficacious
same,% of Cultures with Keratin and Keratohyaline Granules,[9]; 10^-10 M,100%
same,% of Cultures with Respective Amounts of Squamous Metaplasia: None,[9]; 10^-10 M,0%
same,% of Cultures with Respective Amounts of Squamous Metaplasia: Marked,[9]; 10^-10 M,75%
same,% of Cultures with Respective Amounts of Squamous Metaplasia: Mild,[9]; 10^-10 M,12%
same,% of Cultures with Respective Amounts of Squamous Metaplasia: Minimal,[9]; 10^-10 M,0%
same,% of Cultures with Respective Amounts of Squamous Metaplasia: Severe,[9]; 10^-10 M,12%
same,systemic toxicity,[10],low systemic toxicity
same,accumulation in the liver,[11],does not accumulate in the liver in appreciable amounts
same,Mammary Tumor Incidence,[12]; [23],13/16
same,Mammary Tumor Incidence (%),[12]; [23],81%
same,Mammary Tumor Incidence (%),"[12]; 18 weeks, MNU high dose (50 mg/kg), 782 mg/kg diet",64%
same,Mammary Tumor Incidence (%),[12]; [24],12%
same,Total Number of Tumors,[12]; [24],5
same,Mammary Tumor Incidence,"[12]; saline, 391 mg/kg diet",0/10
same,Total Number of Tumors,"[12]; saline, 782 mg/kg diet",0
same,LD50,[13]; ip,436 mg/kg
same,LD50,[13]; po,> 400 mg/kg
same,toxicity relative to retinyl acetate,[14],less toxic
same,prevention of breast cancer in rats,[15],very effective in preventing breast cancer in rats
same,efficacy relative to retinyl acetate,[4]; MNU-induced mammary carcinogenesis,substantially as efficacious as retinyl acetate
same,Mammary Tumor Incidence,[4]; [25],5/16
same,Mammary Tumor Incidence (%),[4]; [25],31%
same,Mammary Tumor Incidence,[4]; [26],0/17
same,Mammary Tumor Incidence (%),[4]; [26],0%
same,Mammary Tumor Incidence,[4]; [27],0/40
same,Mammary Tumor Incidence (%),[4]; [27],0%
same,Mammary Tumor Incidence,[4]; [28],0/39
same,Mammary Tumor Incidence (%),[4]; [28],0%
same,Mammary Tumor Incidence,[4]; [29],0/10
same,Mammary Tumor Incidence (%),[4]; [29],0%
same,Mammary Tumor Incidence,[4]; [30],0/10
same,Mammary Tumor Incidence (%),[4]; [30],0%
same,Total Number of Tumors,"[4]; Table III, 18 weeks, MNU high dose (50 mg/kg), 391 mg/kg diet",48
same,Mammary Tumor Incidence,[4]; [31],11/17
same,Total Number of Tumors,[4]; [31],37
same,Mammary Tumor Incidence,"[4]; Table III, 21 weeks, MNU low dose (15 mg/kg), 391 mg/kg diet",5/40
same,Mammary Tumor Incidence,[4]; [32],3/39
same,Mammary Tumor Incidence (%),[4]; [32],8%
same,Total Number of Tumors,[4]; [32],4
same,Mammary Tumor Incidence (%),[4]; [33],0%
same,Total Number of Tumors,[4]; [33],0
same,Mammary Tumor Incidence,[4]; [34],0/10
same,Mammary Tumor Incidence (%),[4]; [34],0%
"CC1=C(/C=C/C(C)=C/C=C/C(C)=C/C(=O)O)C(C)(C)CCC1 [Retinoic Acid, retinoic acid, reference compound]",% of Cultures with Keratin and Keratohyaline Granules,[9]; 10^-8 M,0%
same,% of Cultures with Respective Amounts of Squamous Metaplasia: None,[9]; 10^-8 M,27%
same,% of Cultures with Respective Amounts of Squamous Metaplasia: Marked,[9]; 10^-8 M,0%
same,% of Cultures with Respective Amounts of Squamous Metaplasia: Mild,[9]; 10^-8 M,23%
same,% of Cultures with Respective Amounts of Squamous Metaplasia: Minimal,[9]; 10^-8 M,49%
same,% of Cultures with Respective Amounts of Squamous Metaplasia: Severe,[9]; 10^-8 M,0%
same,% of Cultures with Keratin and Keratohyaline Granules,[9]; 10^-9 M,3%
same,% of Cultures with Respective Amounts of Squamous Metaplasia: None,[9]; 10^-9 M,16%
same,% of Cultures with Respective Amounts of Squamous Metaplasia: Marked,[9]; 10^-9 M,12%
same,% of Cultures with Respective Amounts of Squamous Metaplasia: Mild,[9]; 10^-9 M,32%
same,% of Cultures with Respective Amounts of Squamous Metaplasia: Minimal,[9]; 10^-9 M,37%
same,% of Cultures with Respective Amounts of Squamous Metaplasia: Severe,[9]; 10^-9 M,2%
same,% of Cultures with Keratin and Keratohyaline Granules,[9]; 10^-10 M,32%
same,% of Cultures with Respective Amounts of Squamous Metaplasia: None,[9]; 10^-10 M,9%
same,% of Cultures with Respective Amounts of Squamous Metaplasia: Marked,[9]; 10^-10 M,17%
same,% of Cultures with Respective Amounts of Squamous Metaplasia: Mild,[9]; 10^-10 M,43%
same,% of Cultures with Respective Amounts of Squamous Metaplasia: Minimal,[9]; 10^-10 M,4%
same,% of Cultures with Respective Amounts of Squamous Metaplasia: Severe,[9]; 10^-10 M,28%
same,toxicity at high dosage levels,[3],too toxic at high dosage levels to be of practical value for cancer prevention in higher mammals
same,lowest concentration causing reversion to normal tracheal epithelium,[16],10^-9 M
